{"source": "patent US10729668B2", "about": "“Ketobutyrate compounds and compositions for treating age-related symptoms and diseases” (The Regents of the University of California, priority 2014, dated 2020)", "key": {"[1]": {"target": "T1, Complex II (Mus musculus, UniProt Q8K2B3+Q9CQA3+Q9CXV1+Q9CZB0)", "T1 construct": "Mitochondria were isolated from mouse liver as described earlier; from tissue; host or cells: liver mitochondria of 3-month-old C57BL/6 mice", "T1 sequence (Q8K2B3 43-664)": "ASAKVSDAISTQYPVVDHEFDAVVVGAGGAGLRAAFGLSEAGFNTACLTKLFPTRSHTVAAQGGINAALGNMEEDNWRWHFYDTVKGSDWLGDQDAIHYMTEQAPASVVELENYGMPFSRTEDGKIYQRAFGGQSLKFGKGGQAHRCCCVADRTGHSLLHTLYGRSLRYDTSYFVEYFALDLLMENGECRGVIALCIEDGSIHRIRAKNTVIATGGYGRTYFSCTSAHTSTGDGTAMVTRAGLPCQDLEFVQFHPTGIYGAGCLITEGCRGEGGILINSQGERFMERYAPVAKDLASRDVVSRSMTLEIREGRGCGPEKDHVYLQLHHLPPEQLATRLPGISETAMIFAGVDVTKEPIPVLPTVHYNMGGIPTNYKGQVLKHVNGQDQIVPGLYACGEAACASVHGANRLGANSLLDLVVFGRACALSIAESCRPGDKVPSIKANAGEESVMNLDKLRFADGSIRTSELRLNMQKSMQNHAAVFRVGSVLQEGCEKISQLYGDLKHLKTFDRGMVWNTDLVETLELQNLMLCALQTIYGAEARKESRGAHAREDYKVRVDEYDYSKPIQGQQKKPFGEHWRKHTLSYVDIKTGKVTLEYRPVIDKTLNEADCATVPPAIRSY", "T1 sequence (Q9CQA3 31-282)": "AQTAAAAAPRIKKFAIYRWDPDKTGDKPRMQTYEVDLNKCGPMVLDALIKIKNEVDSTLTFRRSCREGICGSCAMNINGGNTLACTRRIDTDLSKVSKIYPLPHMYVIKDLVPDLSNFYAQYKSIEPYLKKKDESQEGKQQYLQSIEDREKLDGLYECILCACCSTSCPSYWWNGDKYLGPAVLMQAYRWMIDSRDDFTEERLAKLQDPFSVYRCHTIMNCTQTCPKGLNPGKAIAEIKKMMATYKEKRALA", "T1 sequence (Q9CZB0 30-169)": "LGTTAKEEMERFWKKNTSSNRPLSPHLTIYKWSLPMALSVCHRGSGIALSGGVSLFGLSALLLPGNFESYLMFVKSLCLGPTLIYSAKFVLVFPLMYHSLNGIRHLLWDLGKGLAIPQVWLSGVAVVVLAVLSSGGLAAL", "T1 sequence (Q9CXV1 57-159)": "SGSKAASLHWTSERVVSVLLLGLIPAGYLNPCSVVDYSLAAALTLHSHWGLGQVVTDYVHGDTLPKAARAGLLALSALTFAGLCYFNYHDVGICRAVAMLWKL", "assay": "Complex II driven coupling assay, isolated liver mitochondria (succinate and rotenone)", "assay_type": "biochemical", "settings": "succinate supplemented", "method": "Animal studies were performed under approved UCLA animal research protocols. Mitochondria from 3-month-old C57BL/6 mice were isolated. Briefly, livers were extracted, minced at 4° C. in MSHE+BSA (70 mM sucrose, 210 mM mannitol, 5 mM HEPES, 1 mM EGTA, and 0.5% fatty acid free BSA, pH 7.2), and rinsed several times to remove blood. All subsequent steps were performed on ice or at 4° C. The tissue was disrupted in 10 volumes of MSHE+BSA with a glass Dounce homogenizer (5-6 strokes) and the homogenate was centrifuged at 800×g for 10 minutes to remove tissue debris and nuclei. The supernatant was decanted through a cell strainer and centrifuged at 8,000×g for 10 minutes. The dark mitochondrial pellet was resuspended in MSHE+BSA and re-centrifuged at 8,000×g for 10 minutes. The final mitochondrial pellet was resuspended in 30 μl of MAS buffer (70 mM sucrose, 220 mM mannitol, 10 mM KH2PO4, 5 mM MgCl2, 2 mM HEPES, 1 mM EGTA, and 0.2% fatty acid free BSA, pH 7.2). Isolated mitochondrial respiration was measured by running coupling and electron flow assays as described. […]\nMitochondrial respiration was measured by running coupling and electron flow assays. […]"}, "[2]": {"system": "C57BL/6 male mice", "assay": "Transverse aortic constriction (TAC) induced heart failure and cardiac hypertrophy", "assay_type": "in vivo, mouse", "method": "Surgical procedure was performed one day before treatment with vehicle or α-KB. Cardiac output was assessed 3 weeks post-treatment by determining the cardiac ejection fraction (EF) by echo.\nTransverse aortic constriction (TAC) in mice was used to induce pressure overload-induced heart failure and cardiac hypertrophy. TAC surgical procedure was performed one day before treatment with vehicle or α-KB. C57BL/6 male mice were treated with α-KB at 30 mg/kg body weight per day in drinking water. Cardiac output was assessed 3 weeks post-treatment by determining the cardiac ejection fraction (EF) measured by Echo."}, "[3]": {"system": "cardiomyocytes of neonatal rats", "assay": "Catecholamine (ISO, PE) induced hypertrophy of cardiomyocytes", "assay_type": "cell-based, rat", "settings": "1 mM", "from_the_text": "In additional experiments, cardiomyocytes of neonatal rats were isolated by collagenase digestion and cultured overnight in DMEM containing 10% FCS, and then culture medium was changed to serum-free high glucose DMEM with supplement of ITS (insulin, transferrin, and sodiumselenite).\nCatecholamine-induced cardiac hypertrophy."}, "[4]": {"system": "Aged mice (22-23 month old C57BL/6J)", "assay": "Aged mice fed α-KB in drinking water for 7 months", "assay_type": "in vivo", "method": "Aged mice (22-23 month old C57BL/6J), including both males and females, were fed either water or α-KB (8 mM in drinking water or 90 mg/kg body weight) for 7 months. […] Mice were examined at least twice a week for signs of ill health, and severely sick or immobilized mice were subject to termination. The lifespan of α-KB treated male group was extended. All the males in untreated control group (5 of 5) died or were terminated due to severe illness before the completion of the 7 months test. Remarkably, most of the males in the α-KB treated group (4 of 5) lived healthily and were still in excellent health at the end of the 7 months study period."}, "[5]": {"target": "T2, pyruvate dehydrogenase (Bos taurus, UniProt A7MB35+P11966)", "T2 construct": "purchased Abcam ab110338 (lysate); ab109902 (assay kit); host or cells: bovine heart mitochondrial lysate", "T2 sequence (A7MB35 30-390)": "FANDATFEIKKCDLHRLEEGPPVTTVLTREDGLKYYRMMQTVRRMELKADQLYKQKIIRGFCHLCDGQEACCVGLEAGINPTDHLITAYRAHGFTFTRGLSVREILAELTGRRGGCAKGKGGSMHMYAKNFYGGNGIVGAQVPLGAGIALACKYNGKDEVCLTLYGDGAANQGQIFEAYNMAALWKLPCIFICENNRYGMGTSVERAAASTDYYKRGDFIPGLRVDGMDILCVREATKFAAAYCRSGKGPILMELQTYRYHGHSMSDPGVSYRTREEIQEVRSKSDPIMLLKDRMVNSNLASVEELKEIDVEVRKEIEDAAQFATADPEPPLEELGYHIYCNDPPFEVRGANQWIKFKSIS", "T2 sequence (P11966 31-359)": "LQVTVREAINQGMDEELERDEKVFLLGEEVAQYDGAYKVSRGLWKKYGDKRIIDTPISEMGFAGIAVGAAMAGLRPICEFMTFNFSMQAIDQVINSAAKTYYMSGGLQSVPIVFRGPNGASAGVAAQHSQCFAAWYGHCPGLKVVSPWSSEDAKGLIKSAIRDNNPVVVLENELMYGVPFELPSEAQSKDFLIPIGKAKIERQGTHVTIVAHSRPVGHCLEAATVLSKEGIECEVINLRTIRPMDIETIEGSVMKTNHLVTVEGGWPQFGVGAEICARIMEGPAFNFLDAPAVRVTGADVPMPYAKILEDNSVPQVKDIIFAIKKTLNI", "T2 sequence (P11180 87-647 partner)": "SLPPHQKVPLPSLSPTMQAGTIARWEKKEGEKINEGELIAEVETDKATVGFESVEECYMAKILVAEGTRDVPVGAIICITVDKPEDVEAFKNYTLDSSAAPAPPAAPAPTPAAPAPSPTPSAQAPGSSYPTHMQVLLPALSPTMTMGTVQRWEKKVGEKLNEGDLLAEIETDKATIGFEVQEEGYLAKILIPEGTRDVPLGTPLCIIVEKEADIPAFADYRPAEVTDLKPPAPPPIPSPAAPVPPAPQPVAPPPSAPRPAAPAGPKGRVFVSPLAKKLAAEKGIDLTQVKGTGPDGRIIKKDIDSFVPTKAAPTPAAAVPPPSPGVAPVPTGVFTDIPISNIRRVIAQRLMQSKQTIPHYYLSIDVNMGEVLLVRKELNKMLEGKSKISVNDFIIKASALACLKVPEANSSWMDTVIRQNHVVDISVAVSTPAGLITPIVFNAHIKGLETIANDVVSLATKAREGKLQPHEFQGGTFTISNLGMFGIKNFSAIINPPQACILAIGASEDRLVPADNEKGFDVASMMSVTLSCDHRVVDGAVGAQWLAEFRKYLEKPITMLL", "T2 sequence (P22439 54-501 partner)": "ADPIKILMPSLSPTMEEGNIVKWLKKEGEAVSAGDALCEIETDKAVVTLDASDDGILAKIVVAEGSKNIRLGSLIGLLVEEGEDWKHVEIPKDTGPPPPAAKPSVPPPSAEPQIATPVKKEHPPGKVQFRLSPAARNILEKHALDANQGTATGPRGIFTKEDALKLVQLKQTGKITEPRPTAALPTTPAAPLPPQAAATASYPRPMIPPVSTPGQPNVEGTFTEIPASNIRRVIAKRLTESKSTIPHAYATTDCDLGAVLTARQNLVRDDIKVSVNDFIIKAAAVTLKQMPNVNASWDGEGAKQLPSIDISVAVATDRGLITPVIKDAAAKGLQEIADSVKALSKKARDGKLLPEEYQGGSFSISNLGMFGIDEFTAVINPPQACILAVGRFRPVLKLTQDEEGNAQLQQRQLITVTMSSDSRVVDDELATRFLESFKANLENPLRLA", "T2 sequence (F1N206 36-509 partner)": "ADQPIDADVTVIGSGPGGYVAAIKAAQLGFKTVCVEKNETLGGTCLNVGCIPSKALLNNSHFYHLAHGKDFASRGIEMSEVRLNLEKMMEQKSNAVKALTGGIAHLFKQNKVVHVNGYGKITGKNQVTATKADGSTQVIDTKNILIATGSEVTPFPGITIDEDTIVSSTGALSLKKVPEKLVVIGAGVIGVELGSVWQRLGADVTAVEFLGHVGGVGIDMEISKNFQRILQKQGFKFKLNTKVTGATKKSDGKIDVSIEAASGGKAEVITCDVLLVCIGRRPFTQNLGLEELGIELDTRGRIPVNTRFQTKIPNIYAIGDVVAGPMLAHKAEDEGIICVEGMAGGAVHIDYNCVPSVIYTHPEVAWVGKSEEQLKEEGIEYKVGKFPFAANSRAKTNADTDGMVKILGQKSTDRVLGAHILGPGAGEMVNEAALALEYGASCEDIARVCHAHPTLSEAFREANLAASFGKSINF", "assay": "Pyruvate Dehydrogenase (PDH) Enzyme Activity Microplate Assay", "assay_type": "biochemical, bovine", "settings": "vehicle mean as 100 percent", "method": "To examine the effect of α-KB on pyruvate dehydrogenase, the Pyruvate Dehydrogenase (PDH) Enzyme Activity Microplate Assay Kit (Abcam, ab109902) was used. The assay was performed according to the protocol provided. Detergent was added to bovine heart mitochondrial lysate (Abcam, ab110338) and followed by an incubation at 4° C. for 20 minutes to release PDH. The sample was then centrifuged at 14,000×g for 10 minutes. Supernatant was diluted with the incubation buffer and added to a PDH antibody-coated 96-well plate. After 3 hours incubation followed by 2× wash with stabilizer buffer, the wells were added with 200 μL of reaction mix containing 10, 20, 50, 200, and 800 μM α-KB or vehicle control (distilled water). Each condition was performed in triplicates. Kinetic measurements of absorbance at 450 nm with 1 minute intervals were taken, and PDH activity was calculated from the slope of the absorbance to time. The readings were normalized to vehicle mean (as 100 percent)."}}, "data": [{"smiles": "CCC(=O)C(=O)O", "note": "[α-KB, α-ketobutyrate]", "values": [{"measurement": "mitochondrial respiration, Complex II-driven coupling", "setting": "[1]", "value": "no effect"}, {"measurement": "mortality", "setting": "[2]", "value": "appeared to decrease mortality"}, {"measurement": "heart (mg)/body (g) ratio", "setting": "[2]; end of experiment (5 weeks), Mean, STEDV", "value": "10.72±1.98"}, {"measurement": "induced overexpression of ANF and BNP", "setting": "[3]", "value": "suppressed"}, {"measurement": "ISO- and PE-induced hypertrophy", "setting": "[3]; 48 hours", "value": "completely abolished"}, {"measurement": "adverse effects", "setting": "[4]; 8 mM in drinking water or 90 mg/kg body weight, 7 months", "value": "no adverse effects"}, {"measurement": "gray hair versus untreated group", "setting": "[4]; aged female mice", "value": "reduced"}, {"measurement": "lifespan, females, treated versus untreated", "setting": "[4]; aged female mice", "value": "indistinguishable"}, {"measurement": "hair density versus untreated control", "setting": "[4]; aged female mice, 7 months", "value": "higher"}, {"measurement": "effect on gray hair and hair density", "setting": "[4]; aged male mice", "value": "minimal"}, {"measurement": "lifespan, male group", "setting": "[4]; aged male mice", "value": "extended"}, {"measurement": "males alive and healthy at end of the 7 months study period", "setting": "[4]; aged male mice", "value": "4 of 5"}, {"measurement": "cataracts", "setting": "[4]; aged mice", "value": "no cataracts"}, {"measurement": "liver appearance", "setting": "[4]; male and female aged mice", "value": "greatly improved liver appearance"}, {"measurement": "normalized PDH activity (percentage)", "setting": "[5]; 200 μM", "value": "68.0±11.8", "unit": "percentage"}, {"measurement": "normalized PDH activity (percentage)", "setting": "[5]; 800 μM", "value": "41.6±7.89", "unit": "percentage"}]}]}
